Here are results for 15 compounds from patent US20230147942A1, “PHARMACEUTICAL COMPOSITION COMPRISING NEW LACTOBACILLUS PLANTARUM KC3 STRAIN AND LEONURUS JAPONICUS EXTRACT AS ACTIVE INGREDIENTS FOR PREVENTING OR TREATING RESPIRATORY DISEASE AND USE THEREOF” (KT&G CORPORATION, priority 2020, published 2023).

Where a SMILES comes first, the peptide text is derived from it. Bridges are numbered along the chain shown (N, C = ends). [ ]: non-standard residue; d: D form. The star is where a group is joined. Ileψ(thiazoline)Cys = CC[C@H](C)[C@H](N)C1=N[C@H](C(=O)*)CS1; dOrn = NCCC[C@@H](N)C(=O)O

This assay concerns Lactobacillus plantarum KC3. In words: Antibiotic susceptibility of strain (antibiotic strips on LSM solid medium). It counts as cell-based. The note with it: 37° C., 24 hours. The protocol: In order to confirm antibiotics resistance level of the new lactic acid bacteria from the of the Lactobacillus plantarum KC3 the present disclosure, an experiment was performed as follows by applying the method described in the document
To measure the antibiotics resistance level of the strain, an MIC test was carried out. Lactic acid bacteria that were inoculated into an MRS medium (DF0881-17-5, Difco) and cultured at 37° C. for 18 hours were spread on an LSM solid medium (90% iso-sensitest broth (CM0473, Oxoid), 10% MRS medium (DF0881-17-5, Difco), and 1.5% agar (214010, Difco)). Strips for each type of antibiotics, such as Amikacin (92018, Liofilchem srl), Gentamycin (92009, Liofilchem srl), Kanamycin (92034, Liofilchem srl), Streptomycin (92112, Liofilchem srl), Penicillin-G (92102, Liofilchem srl), Oxacillin (92015, Liofilchem srl), Ampicillin (920030, Liofilchem srl), Bacitracin (92019, Liofilchem srl), Rifampicin (92001, Liofilchem srl), Polymyxin B (92004, Liofilchem srl), Chloramphenico 1(92075, Liofilchem srl), Vancomycin (92057, Liofilchem srl), and the like, were put on the medium, and the bacteria were grown at 37° C. for 24 hours.
In Table 4, R indicates resistance and represents that the size of an inhibition zone is about 0 mm; IS indicates mediate resistance and represents that the size of an inhibition zone is in a range of about 1 mm to about 5 mm; and S indicates susceptibility and represents that the size of an inhibition zone is greater than about 5 mm.

Regarding `NCC[C@H](O)C(=O)N[C@@H]1C[C@H](N)[C@@H](O[C@H]2O[C@H](CN)[C@@H](O)[C@H](O)[C@H]2O)[C@H](O)[C@H]1O[C@H]1O[C@H](CO)[C@@H](O)[C@H](N)[C@H]1O` [Amikacin], the “Antibiotic resistance (class)” value was “IS (IS indicates mediate resistance and represents that the size of an inhibition zone is in a range of about 1 mm to about 5 mm)”; the “Antibiotic resistance, size of inhibition zone” value came to 1 mm.

As to `CC1(C)S[C@@H]2[C@H](NC(=O)[C@H](N)c3ccccc3)C(=O)N2[C@H]1C(=O)O` [Ampicillin], the “Antibiotic resistance (class)” value is “S (S indicates susceptibility and represents that the size of an inhibition zone is greater than about 5 mm)”; the “Antibiotic resistance, size of inhibition zone” value stood at 14 mm.

On to `Cc1onc(-c2ccccc2)c1C(=O)N[C@@H]1C(=O)N2[C@@H]1SC(C)(C)[C@@H]2C(=O)O` [Oxacillin], for which the “Antibiotic resistance (class)” value is “IS (IS indicates mediate resistance and represents that the size of an inhibition zone is in a range of about 1 mm to about 5 mm)”; the “Antibiotic resistance, size of inhibition zone” value was found to be 2 mm.

Gentamycin: the “Antibiotic resistance (class)” value is “IS (IS indicates mediate resistance and represents that the size of an inhibition zone is in a range of about 1 mm to about 5 mm)”; the “Antibiotic resistance, size of inhibition zone” value was found to be 3 mm.

Take `[H]/N=C(/N)N[C@H]1[C@H](O)[C@@H](O)[C@H](O[C@@H]2O[C@@H](C)[C@](O)(C=O)[C@H]2O[C@@H]2O[C@@H](CO)[C@H](O)[C@@H](O)[C@@H]2NC)[C@@H](N/C(N)=N\[H])[C@@H]1O` [Streptomycin]: the “Antibiotic resistance (class)” value is “R (R indicates resistance and represents that the size of an inhibition zone is about 0 mm)”; the “Antibiotic resistance, size of inhibition zone” value came out at 0 mm.

Polymyxin B: the “Antibiotic resistance (class)” value is “R (R indicates resistance and represents that the size of an inhibition zone is about 0 mm)”; the “Antibiotic resistance, size of inhibition zone” value was found to be 0 mm.

Consider `CCC[C@@H]1C[C@@H](C(=O)N[C@@H]([C@H]2O[C@H](SC)[C@H](O)[C@@H](O)[C@H]2O)[C@@H](C)O)N(C)C1` [Lincomycin], for which the “Antibiotic resistance (class)” value was “S (S indicates susceptibility and represents that the size of an inhibition zone is greater than about 5 mm)”; the “Antibiotic resistance, size of inhibition zone” value is 10 mm.

As for `CC[C@H](C)[C@H](N)C1=N[C@H](C(=O)N[C@@H](CC(C)C)C(=O)N[C@H](CCC(=O)O)C(=O)N[C@H](C(=O)N[C@H]2CCCCNC(=O)[C@H](CC(N)=O)NC(=O)[C@@H](CC(=O)O)NC(=O)[C@H](Cc3cnc[nH]3)NC(=O)[C@@H](Cc3ccccc3)NC(=O)[C@H]([C@@H](C)CC)NC(=O)[C@@H](CCCN)NC2=O)[C@@H](C)CC)CS1` [Bacitracin] ({Ileψ(thiazoline)Cys}-L[dE]IK[dOrn]I[dF]H[dD]N; lactam 4-C), the “Antibiotic resistance (class)” value was “S (S indicates susceptibility and represents that the size of an inhibition zone is greater than about 5 mm)”; the “Antibiotic resistance, size of inhibition zone” value was determined as 7 mm.

`CO[C@@H]1[C@@H](OC(N)=O)[C@@H](O)[C@H](Oc2ccc3c(O)c(NC(=O)c4ccc(O)c(CC=C(C)C)c4)c(=O)oc3c2C)OC1(C)C` [Novabiocin]: the “Antibiotic resistance (class)” value is “S (S indicates susceptibility and represents that the size of an inhibition zone is greater than about 5 mm)”; the “Antibiotic resistance, size of inhibition zone” value came out at 7 mm.

Turning to `NC[C@H]1O[C@H](O[C@H]2[C@H](O)[C@@H](O[C@H]3O[C@H](CO)[C@@H](O)[C@H](N)[C@H]3O)[C@H](N)C[C@@H]2N)[C@H](O)[C@@H](O)[C@@H]1O` [Kanamycin], the “Antibiotic resistance (class)” value is “R (R indicates resistance and represents that the size of an inhibition zone is about 0 mm)”; the “Antibiotic resistance, size of inhibition zone” value came to 0 mm.

Turning to Neomycin, the “Antibiotic resistance (class)” value was “IS (IS indicates mediate resistance and represents that the size of an inhibition zone is in a range of about 1 mm to about 5 mm)”; the “Antibiotic resistance, size of inhibition zone” value worked out at 3 mm.

For `O=C(N[C@H](CO)[C@H](O)c1ccc([N+](=O)[O-])cc1)C(Cl)Cl` [Chloramphenicol], the “Antibiotic resistance (class)” value was “S (S indicates susceptibility and represents that the size of an inhibition zone is greater than about 5 mm)”; the “Antibiotic resistance, size of inhibition zone” value stood at 10 mm.

For the compound `CN[C@H](CC(C)C)C(=O)N[C@H]1C(=O)N[C@@H](CC(N)=O)C(=O)N[C@H]2C(=O)N[C@H]3C(=O)N[C@H](C(=O)N[C@H](C(=O)O)c4cc(O)cc(O)c4-c4cc3ccc4O)[C@H](O)c3ccc(c(Cl)c3)Oc3cc2cc(c3O[C@@H]2O[C@H](CO)[C@@H](O)[C@H](O)[C@H]2O[C@H]2C[C@](C)(N)[C@H](O)[C@H](C)O2)Oc2ccc(cc2Cl)[C@H]1O` [Vancomycin], the “Antibiotic resistance (class)” value was “R (R indicates resistance and represents that the size of an inhibition zone is about 0 mm)”; the “Antibiotic resistance, size of inhibition zone” value was determined as 0 mm.

Regarding `CC1(C)S[C@@H]2[C@H](NC(=O)Cc3ccccc3)C(=O)N2[C@H]1C(=O)O` [Penicillin-G], the “Antibiotic resistance (class)” value is “IS (IS indicates mediate resistance and represents that the size of an inhibition zone is in a range of about 1 mm to about 5 mm)”; the “Antibiotic resistance, size of inhibition zone” value stood at 5 mm.

`CO[C@H]1/C=C/O[C@@]2(C)Oc3c(C)c(O)c4c(O)c(c(/C=N/N5CCN(C)CC5)c(O)c4c3C2=O)NC(=O)/C(C)=C\C=C\[C@H](C)[C@H](O)[C@@H](C)[C@@H](O)[C@@H](C)[C@H](OC(C)=O)[C@@H]1C` [Rifampicin]: the “Antibiotic resistance (class)” value is “S (S indicates susceptibility and represents that the size of an inhibition zone is greater than about 5 mm)”; the “Antibiotic resistance, size of inhibition zone” value was determined as 7 mm.
